This note sets out measurements from patent US20210392895A1, “NOVEL OXADIAZOLES” (PI INDUSTRIES LIMITED, priority 2018, published 2021).

The test system of the test is Phakopsora pachyrhizi. Kind of test: Phakopsora pachyrhizi test in soybean (greenhouse, preventive activity, disease severity rating). In kind it is in vivo. The settings on record: preventive spray on soybean, compared to the untreated check. The procedure: To test the preventive activity of compounds, healthy young soybean plants, raised in the greenhouse, were sprayed with the active compound solution at the stated application rates inside spray cabinets using hallowcone nozzles. One day after treatment, the plants were inoculated with a suspension containing 2.1×10^6 Phakopsora pachyrhizi spores. The inoculated plants were then kept in the greenhouse chamber at 25° C. temperature and 90% relative humidity for disease expression. A visual assessment of the compound's performance was carried out by rating the disease severity (0-100% scale) on treated plants on 3, 7, 10 and 15 days after application. Efficacy (% control) of the compounds was calculated by comparing the disease rating in the treatment with the one of the untreated control. The treated plants were also assessed for plant compatibility by recording symptoms like necrosis, chlorosis and stunting.
By pest or weed control is commonly meant how far the test organism was held down. Higher therefore signals a strong effect. `O=C(c1cccc(Br)c1)N1CC[C@H](Oc2ccc(-c3noc(C(F)(F)F)n3)cc2)C1` [Compound 3, (S)-(3-bromophenyl)(3-(4-(5-(trifluoromethyl)-1,2,4-oxadiazol-3-yl)phenoxy)pyrrolidin-1-yl)methanone]: the pest or weed control at 500 ppm is greater than 70%. As for `CN(C)c1ccc(C(=O)N2CC[C@H](Oc3ccc(-c4noc(C(F)(F)F)n4)cc3)C2)cc1` [Compound 8, (S)-(4-(dimethylamino)phenyl)(3-(4-(5-(trifluoromethyl)-1,2,4-oxadiazol-3-yl)phenoxy)pyrrolidin-1-yl)methanone], the pest or weed control at 500 ppm is greater than 70%.

The compound `O=C(C1CCC1)N1CC[C@H](Oc2ccc(-c3noc(C(F)(F)F)n3)cc2)C1` [Compound 9, (S)-cyclobutyl(3-(4-(5-(trifluoromethyl)-1,2,4-oxadiazol-3-yl)phenoxy)pyrrolidin-1-yl)methanone] displayed a pest or weed control at 500 ppm greater than 70%.

For the compound `O=C(c1ccc(F)cc1)N1CC[C@H](Oc2ccc(-c3noc(C(F)(F)F)n3)cc2)C1` [Compound 14, (S)-(4-fluorophenyl)(3-(4-(5-(trifluoromethyl)-1,2,4-oxadiazol-3-yl)phenoxy)pyrrolidin-1-yl)methanone], the pest or weed control at 500 ppm is greater than 70%. For `O=C(c1ccccc1)N1CC[C@H](Oc2ccc(-c3noc(C(F)(F)F)n3)cc2)C1` [Compound 15, (S)-phenyl(3-(4-(5-(trifluoromethyl)-1,2,4-oxadiazol-3-yl)phenoxy)pyrrolidin-1-yl)methanone] the value was greater than 70%; for `O=C(c1cccc(Br)c1)N1CC(Oc2ccc(-c3noc(C(F)(F)F)n3)cc2)C1` [Compound 16, (3-bromophenyl)(3-(4-(5-(trifluoromethyl)-1,2,4-oxadiazol-3-yl)phenoxy)azetidin-1-yl)methanone], greater than 70%; for `O=C(c1cccc(F)c1)N1CC(Oc2ccc(-c3noc(C(F)(F)F)n3)cc2)C1` [Compound 18, (3-fluorophenyl)(3-(4-(5-(trifluoromethyl)-1,2,4-oxadiazol-3-yl)phenoxy)azetidin-1-yl)methanone], greater than 70%. For `O=C(c1ccccc1F)N1CC(Oc2ccc(-c3noc(C(F)(F)F)n3)cc2)C1` [Compound 20, (2-fluorophenyl)(3-(4-(5-(trifluoromethyl)-1,2,4-oxadiazol-3-yl)phenoxy)azetidin-1-yl)methanone] the value was greater than 70%; for `O=S(=O)(Cc1ccccc1)N1CC(Oc2ccc(-c3noc(C(F)(F)F)n3)cc2)C1` [Compound 22, 3-(4-((1-(benzylsulfonyl)azetidin-3-yl)oxy)phenyl)-5-(trifluoromethyl)-1,2,4-oxadiazole], greater than 70%. The value for `CC(C)(C)OC(=O)N1CC[C@H](Oc2ccc(-c3noc(C(F)(F)F)n3)cc2)C1` [Compound 23, tert-butyl (S)-3-(4-(5-(trifluoromethyl)-1,2,4-oxadiazol-3-yl)phenoxy)pyrrolidine-1-carboxylate] was greater than 70%; that for `O=S(=O)(c1ccccc1)N1CC[C@H](Oc2ccc(-c3noc(C(F)(F)F)n3)cc2)C1` [Compound 25, (S)-3-(4-((1-(phenylsulfonyl)pyrrolidin-3-yl)oxy)phenyl)-5-(trifluoromethyl)-1,2,4-oxadiazole] was greater than 70%.

`O=S(=O)(c1cccc(F)c1)N1CC[C@H](Oc2ccc(-c3noc(C(F)(F)F)n3)cc2)C1` [Compound 26, (S)-3-(4-((1-((3-fluorophenyl)sulfonyl)pyrrolidin-3-yl)oxy)phenyl)-5-(trifluoromethyl)-1,2,4-oxadiazole] yielded a pest or weed control at 500 ppm greater than 70%.

As for `CC(C)(C)OC(=O)N1CC[C@H](Oc2ccc(-c3noc(C(F)(F)F)n3)nc2)C1` [Compound 27, tert-butyl (S)-3-((6-(5-(trifluoromethyl)-1,2,4-oxadiazol-3-yl)pyridin-3-yl)oxy)pyrrolidine-1-carboxylate], the pest or weed control at 500 ppm was greater than 70%. `O=C(c1ccccc1F)N1CC[C@H](Oc2ccc(-c3noc(C(F)(F)F)n3)nc2)C1` [Compound 28, (S)-(2-fluorophenyl)(3-((6-(5-(trifluoromethyl)-1,2,4-oxadiazol-3-yl)pyridin-3-yl)oxy)pyrrolidin-1-yl)methanone] displayed a pest or weed control at 500 ppm greater than 70%. Compound `COc1ccc(C(=O)N2CC[C@H](Oc3ccc(-c4noc(C(F)(F)F)n4)nc3)C2)cc1` [Compound 29, (S)-(4-methoxyphenyl)(3-((6-(5-(trifluoromethyl)-1,2,4-oxadiazol-3-yl)pyridin-3-yl)oxy)pyrrolidin-1-yl)methanone] showed a pest or weed control at 500 ppm greater than 70%.

Turning to `O=C(c1cccc(F)c1)N1CC[C@H](Oc2ccc(-c3noc(C(F)(F)F)n3)nc2)C1` [Compound 30, (S)-(3-fluorophenyl)(3-((6-(5-(trifluoromethyl)-1,2,4-oxadiazol-3-yl)pyridin-3-yl)oxy)pyrrolidin-1-yl)methanone], the pest or weed control at 500 ppm was greater than 70%. For `O=C(c1cccnc1)N1CC[C@H](Oc2ccc(-c3noc(C(F)(F)F)n3)nc2)C1` [Compound 31, (S)-pyridin-3-yl(3-((6-(5-(trifluoromethyl)-1,2,4-oxadiazol-3-yl)pyridin-3-yl)oxy)pyrrolidin-1-yl)methanone] the value was greater than 70%; for `O=C(c1ccncc1)N1CC[C@H](Oc2ccc(-c3noc(C(F)(F)F)n3)nc2)C1` [Compound 32, (S)-pyridin-4-yl(3-((6-(5-(trifluoromethyl)-1,2,4-oxadiazol-3-yl)pyridin-3-yl)oxy)pyrrolidin-1-yl)methanone], greater than 70%; for `O=S(=O)(c1ccccc1F)N1CC[C@H](Oc2ccc(-c3noc(C(F)(F)F)n3)cc2)C1` [Compound 33, (S)-3-(4-((1-((2-fluorophenyl)sulfonyl)pyrrolidin-3-yl)oxy)phenyl)-5-(trifluoromethyl)-1,2,4-oxadiazole], greater than 70%.

`COc1ccc(S(=O)(=O)N2CC[C@H](Oc3ccc(-c4noc(C(F)(F)F)n4)cc3)C2)cc1` [Compound 34, (S)-3-(4-((1-((4-methoxyphenyl)sulfonyl)pyrrolidin-3-yl)oxy)phenyl)-5-(trifluoromethyl)-1,2,4-oxadiazole]: the pest or weed control at 500 ppm was greater than 70%.

Regarding `O=S(=O)(c1ccc(F)cc1)N1CC[C@H](Oc2ccc(-c3noc(C(F)(F)F)n3)cc2)C1` [Compound 35, (S)-3-(4-((1-((4-fluorophenyl)sulfonyl)pyrrolidin-3-yl)oxy)phenyl)-5-(trifluoromethyl)-1,2,4-oxadiazole], the pest or weed control at 500 ppm is greater than 70%. For `O=C(c1ccc(OC(F)(F)F)cc1)N1CC[C@H](Oc2ccc(-c3noc(C(F)(F)F)n3)cc2)C1` [Compound 36, (S)-(4-(trifluoromethoxy)phenyl)(3-(4-(5-(trifluoromethyl)-1,2,4-oxadiazol-3-yl)phenoxy)pyrrolidin-1-yl)methanone] the value was greater than 70%; for `O=C(Nc1ccccc1F)N1CC[C@H](Oc2ccc(-c3noc(C(F)(F)F)n3)cc2)C1` [Compound 37, (S)—N-(2-fluorophenyl)-3-(4-(5-(trifluoromethyl)-1,2,4-oxadiazol-3-yl)phenoxy)pyrrolidine-1-carboxamide], greater than 70%; for `O=C(Nc1ccc(F)cc1)N1CC[C@H](Oc2ccc(-c3noc(C(F)(F)F)n3)cc2)C1` [Compound 38, (S)-N-(4-fluorophenyl)-3-(4-(5-(trifluoromethyl)-1,2,4-oxadiazol-3-yl)phenoxy)pyrrolidine-1-carboxamide], greater than 70%. The value for `O=S(=O)(C1CC1)N1CC[C@H](Oc2ccc(-c3noc(C(F)(F)F)n3)cc2)C1` [Compound 41, (S)-3-(4-((1-(cyclopropylsulfonyl)pyrrolidin-3-yl)oxy)phenyl)-5-(trifluoromethyl)-1,2,4-oxadiazole] was greater than 70%.

For the compound `O=S(=O)(c1ccc(F)cc1F)N1CC[C@H](Oc2ccc(-c3noc(C(F)(F)F)n3)cc2)C1` [Compound 42, (S)-3-(4-((1-((2,4-difluorophenyl)sulfonyl)pyrrolidin-3-yl)oxy)phenyl)-5-(trifluoromethyl)-1,2,4-oxadiazole], the pest or weed control at 500 ppm was greater than 70%. For `O=C(C1CC1)N1CC[C@H](Oc2ccc(-c3noc(C(F)(F)F)n3)cc2)C1` [Compound 43, (S)-cyclopropyl(3-(4-(5-(trifluoromethyl)-1,2,4-oxadiazol-3-yl)phenoxy)pyrrolidin-1-yl)methanone] the value was greater than 70%; for `O=C(c1ccc(Cl)cc1)N1CC[C@H](Oc2ccc(-c3noc(C(F)(F)F)n3)cc2)C1` [Compound 44, (S)-(4-chlorophenyl)(3-(4-(5-(trifluoromethyl)-1,2,4-oxadiazol-3-yl)phenoxy)pyrrolidin-1-yl)methanone], greater than 70%; for `COc1ccc(C(=O)N2CC[C@H](Oc3ccc(-c4noc(C(F)(F)F)n4)cn3)C2)cc1` [Compound 46, (S)-(4-methoxyphenyl)(3-((5-(5-(trifluoromethyl)-1,2,4-oxadiazol-3-yl)pyridin-2-yl)oxy)pyrrolidin-1-yl)methanone], greater than 70%. The value for `O=C(c1cccc(F)c1)N1CC[C@H](Oc2ccc(-c3noc(C(F)(F)F)n3)cn2)C1` [Compound 47, (S)-(3-fluorophenyl)(3-((5-(5-(trifluoromethyl)-1,2,4-oxadiazol-3-yl)pyridin-2-yl)oxy)pyrrolidin-1-yl)methanone] was greater than 70%; that for `CCS(=O)(=O)N1CC[C@H](Oc2ccc(-c3noc(C(F)(F)F)n3)cn2)C1` [Compound 50, (S)-3-(6-((1-(ethylsulfonyl)pyrrolidin-3-yl)oxy)pyridin-3-yl)-5-(trifluoromethyl)-1,2,4-oxadiazole] was greater than 70%.
